Laboratory results from patent publication US11339193B2, “CDP protein secretion inhibitors” (KEZAR LIFE SCIENCES, priority 2018, dated 2022).
Numbered stars: 1 amine (or outer) side, 2 acyl side, 3 side chain; on linkers, the order of the positions; unused ones are H or OH. Square brackets hold non-standard residues; d marks the D form. Peptide text beside a SMILES is read from it. NMeTrp(1-(4-Br-benzyl)) = CN[C@@H](Cc1cn(Cc2ccc(Br)cc2)c2ccccc12)C(=O)O; X17 = CN([C@@H](Cc1cn(-c2ccccc2)c2ccccc12)C(=O)[*:2])[*:1]; Butanoyl(2R-oxy,4-CN) = N#CCC[C@@H](O)C(=O)O; Nva(5,5,5-F3) = N[C@@H](CCC(F)(F)F)C(=O)O; Abu(4,4,4-F3) = N[C@@H](CC(F)(F)F)C(=O)O; NMeBta = CN[C@@H](Cc1csc2ccccc12)C(=O)O; Ala(cPr) = N[C@@H](CC1CC1)C(=O)O; NMeL = CN[C@@H](CC(C)C)C(=O)O; NMeA = CN[C@@H](C)C(=O)O

Tests used:
Type in all cases: cell-based
[1] = tested on: U266B1 multiple myeloma cell line; assay: U266 assay (cell viability, Celltiter-Glo); settings: Homo sapiens, U-266; 48 hours, cell viability
Method: Cells were plated in 384-well tissue culture plates and treated with compound dilutions in DMSO/media. Plates were incubated at 37° C., 5% CO2 for 48 hours. After 48 hours, Celltiter-Glo@ (Promega) was added to each well and luciferase signal was quantified using Tecan Infinite M1000 Pro for cell viability determination.

[2] = tested on: BT474 breast tumor cell line; assay: BT474 assay (Alamar blue); settings: Homo sapiens, BT-474, 72 h
Method: (§1) BT474 is a human breast tumor cell line. JJN3 is a human plasma cell leukemia cell line. […] Cells were seeded at 100 000 cells/mL. Aliquots of 5000 cells (50 μL) were added to each well in black, clear bottom 96-well plates. Compounds or control (50 uL of 1% DMSO in cell culture medium) were added to the cells to the indicated final concentrations and cells were incubated for 72 h (unless otherwise specified). After incubation was complete, Alamar blue (10 uL of a 1 mg/mL solution) was added to each well and plates were incubated for 5 h. Fluorescence was then measured (excitation 545 nm, emission 590 nm) and is reported as […] normalized to DMSO control.

[3] = tested on: NCI-H929 multiple myeloma cell line; assay: H929 assay (cell viability, Celltiter-Glo); settings: Homo sapiens, NCI-H929; 48 hours, cell viability; read-out: H929 EC50
Outline: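 Cells plated in RPMI 1640 with 10% FBS and 2 mM glutamine, treated with compound dilutions in DMSO/media. Incubation 48 h at 37° C, 5% CO2. Viability from luciferase luminescence signal.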

[4] = tested on: PD1-ss+10aa/Gaussia Luciferase; assay: Dox induced PD1-ss-Gluc assay; settings: Flp-In 293 T-REx cells, doxycycline, 24 hours; read-out: PD1ss Gluc IC50
Outline: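 Stable Flp-In 293 T-REx line expressing doxycycline-inducible Gaussia luciferase fused to the PD1 signal sequence plus 10 amino acids. Cells plated the day before, then exposed to compound dilutions in DMSO/media containing doxycycline at 37 °C, 5% CO2.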

[5] = tested on: Prl-ss+10aa/Gaussia Luciferase; assay: Prl-ss-Gluc assay (constitutively active or 24 hr Dox inducible); settings: Flp-In 293 T-REx cells, 24 hours; read-out: Prl IC50
Outline: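 Stable Flp-In 293 T-REx lines express Prl signal sequence+10aa fused to Gaussia luciferase, either constitutively (pcDNA5/FRT) or under the T-REx promoter (pcDNA5/FRT/TO). Cells plated the day before; compounds in DMSO/media (with doxycycline for the inducible line, 24 h) incubated at 37 °C, 5% CO2.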

[6] = tested on: TNFα-FL/Gaussia Luciferase; assay: Dox induced TNFα-FL-Gluc assay; settings: Flp-In 293 T-REx cells, doxycycline, 24 hours; read-out: TNFa FL Gluc IC50
Outline: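 Stable Flp-In 293 T-REx line expressing full-length TNFα (aa 1-233) fused at its C-terminus to Gaussia luciferase under doxycycline-inducible control. Cells plated the day before, then given compound dilutions in DMSO/media containing doxycycline and incubated at 37 °C, 5% CO2.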

HER3ss-Gluc = assay: HER3ss assay; settings: HEK-293T T-rex cells, transient transfection, doxycycline, 24 h; read-out: HER3 ss IC50
Outline: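 HEK-293T T-REx cells were transiently transfected with HER3 signal sequence (plus four mature-domain residues) fused upstream of mature Gaussia luciferase. Cells were induced with doxycycline (1 μg/ml) and exposed to increasing compound concentrations for 24 h, then secreted luciferase in the conditioned medium was read by luminescence.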

[7] = tested on: JJN3 plasma cell leukemia cell line; assay: JJN-3 assay (Alamar blue); settings: Homo sapiens, 72 h
Method: as §1

[8] = tested on: VCAMss+10aa/Gaussia Luciferase; assay: VCAM-ss-Gluc assay (constitutively active or Dox induced); settings: Flp-In 293 T-REx cells, 24 hours
Method: Assays Constitutively Active VCAM-ss-Gluc Assay
Transfected cells were selected for resistance to the selectable markers Hygromycin and Blasticidin to create a stable cell line that constitutively expressed the VCAMss+ 10aa/Gaussia Luciferase fusion protein. The day before assay, cells were trypsinized and plated in 384-well tissue culture plates. The next day, culture media was removed from the wells and replaced with fresh media. Compound dilutions in DMSO/media were added to the wells and incubated at 37° C., 5% CO2.
Dox Induced VCAM-ss-Gluc Assay
Transfected cells were selected for resistance to the selectable markers Hygromycin and Blasticidin to create a stable cell line that contained the VCAMss+10aa/Gaussia Luciferase cDNA insert whose expression was regulated under the T-REx™ system. The day before assay, cells were trypsinized and plated in 384-well tissue culture plates. The next day, compound dilutions in DMSO/media containing doxycycline were added to the wells and incubated at 37° C., 5% CO2.

SMILES | EC50 [1] [nM] | EC50 [2] [nM] | EC50 [3] [nM] | IC50 [4] [nM] | IC50 [5] [nM] | IC50 [6] [nM] | IC50 (HER3ss-Gluc) [nM] | EC50 [7] [nM] | IC50 [8] [nM]
CC(C)C[C@@H]1NC(=O)[C@H](Cc2ccccc2)N(C)C(=O)[C@H](CC(C)C)NC(=O)[C@H](CC(C)C)N(C)C(=O)[C@H](CC(C)C)NC(=O)[C@@H](CCC#N)OC(=O)[C@H](C)N(C)C1=O [C-37] (HELM PEPTIDE1{L.[meA].[N#CCC[C@@H](O[*:1])C(=O)[*:2]].L.[meL].L.[meF]}$PEPTIDE1,PEPTIDE1,1:R1-7:R2$$$V2.0) | 20900 | 6360 | 6290 | 582 | 18500 | 1020 | 267 | 8810 | –
CC(C)C[C@@H]1NC(=O)[C@H](Cc2cn(Cc3ccc(Br)cc3)c3ccccc23)N(C)C(=O)[C@H](CC(C)C)NC(=O)[C@H](CC(C)C)N(C)C(=O)[C@H](CC2CC2)NC(=O)[C@@H](CCC#N)OC(=O)[C@H](C)N(C)C1=O [C-38] (cyclo([Ala(cPr)][NMeL]L[NMeTrp(1-(4-Br-benzyl))]L[NMeA][Butanoyl(2R-oxy,4-CN)])) | – | 3880 | 3700 | 105 | 6110 | 389 | 317 | 957 | 320
CC(C)C[C@@H]1NC(=O)[C@H](Cc2cn(Cc3ccc(F)c(F)c3)c3ccccc23)N(C)C(=O)[C@H](CC(C)C)NC(=O)[C@H](CC(C)C)N(C)C(=O)[C@H](CC(C)C)NC(=O)[C@@H](CCC#N)OC(=O)[C@H](C)N(C)C1=O [C-28] (HELM PEPTIDE1{L.[meA].[N#CCC[C@@H](O[*:1])C(=O)[*:2]].L.[meL].L.[CN([C@@H](Cc1cn(Cc2ccc(F)c(F)c2)c2ccccc12)C(=O)[*:2])[*:1]]}$PEPTIDE1,PEPTIDE1,1:R1-7:R2$$$V2.0) | – | 940 | 611 | 27 | 428 | 125 | 60 | 140 | 61
CC(C)C[C@@H]1NC(=O)[C@H](Cc2cn(Cc3ccc(F)nc3)c3ccccc23)N(C)C(=O)[C@H](CC(C)C)NC(=O)[C@H](CC(C)C)N(C)C(=O)[C@H](CC(C)C)NC(=O)[C@@H](CCC#N)OC(=O)[C@H](C)N(C)C1=O [C-36] (HELM PEPTIDE1{L.[meA].[N#CCC[C@@H](O[*:1])C(=O)[*:2]].L.[meL].L.[CN([C@@H](Cc1cn(Cc2ccc(F)nc2)c2ccccc12)C(=O)[*:2])[*:1]]}$PEPTIDE1,PEPTIDE1,1:R1-7:R2$$$V2.0) | – | 1540 | 2870 | 94 | 1090 | 358 | 345 | 289 | 351
CC(C)C[C@@H]1NC(=O)[C@H](Cc2csc3ccccc23)N(C)C(=O)[C@H](CC(C)C)NC(=O)[C@H](CC(C)C)N(C)C(=O)[C@H](CC(C)C)NC(=O)[C@@H](CCC#N)OC(=O)[C@H](C)N(C)C1=O [C-29] (HELM PEPTIDE1{L.[meA].[N#CCC[C@@H](O[*:1])C(=O)[*:2]].L.[meL].L.[CN([C@@H](Cc1csc2ccccc12)C(=O)[*:2])[*:1]]}$PEPTIDE1,PEPTIDE1,1:R1-7:R2$$$V2.0) | – | 1340 | 2640 | 100 | 3400 | 314 | 22 | 316 | 26
COc1ccc(Cn2cc(C[C@H]3C(=O)N[C@@H](CC(C)C)C(=O)N(C)[C@@H](C)C(=O)O[C@H](CCC#N)C(=O)N[C@@H](CC(C)C)C(=O)N(C)[C@@H](CC(C)C)C(=O)N[C@@H](CC(C)C)C(=O)N3C)c3ccccc32)cc1 [C-31] (HELM PEPTIDE1{L.[meA].[N#CCC[C@@H](O[*:1])C(=O)[*:2]].L.[meL].L.[COc1ccc(Cn2cc(C[C@@H](C(=O)[*:2])N(C)[*:1])c3ccccc32)cc1]}$PEPTIDE1,PEPTIDE1,1:R1-7:R2$$$V2.0) | – | 5890 | – | 380 | – | 4060 | 264 | 2060 | –

Second part, the compound after the results:

EC50 [1] [nM] | EC50 [2] [nM] | EC50 [3] [nM] | IC50 [4] [nM] | IC50 [5] [nM] | IC50 [6] [nM] | IC50 (HER3ss-Gluc) [nM] | EC50 [7] [nM] | IC50 [8] [nM] | SMILES
– | 3120 | 3070 | 35 | 15000 | 296 | – | 640 | 141 | CCCC[C@@H]1NC(=O)[C@@H](CCC#N)OC(=O)[C@H](C)N(C)C(=O)[C@H](CC(C)C)NC(=O)[C@H](Cc2cn(Cc3ccc(C(F)(F)F)cc3)c3ccccc23)N(C)C(=O)[C@H](CC(C)C)NC(=O)[C@H](CC(C)C)N(C)C1=O [C-46] (HELM PEPTIDE1{L.[meA].[N#CCC[C@@H](O[*:1])C(=O)[*:2]].[Nle].[meL].L.[CN([C@@H](Cc1cn(Cc2ccc(C(F)(F)F)cc2)c2ccccc12)C(=O)[*:2])[*:1]]}$PEPTIDE1,PEPTIDE1,1:R1-7:R2$$$V2.0)
– | 3440 | 6200 | 133 | – | 836 | – | 1070 | 72 | CC(C)C[C@@H]1NC(=O)[C@H](Cc2cn(-c3ccccc3)c3ccccc23)N(C)C(=O)[C@H](CC(C)C)NC(=O)[C@H](CC(C)C)N(C)C(=O)[C@H](CC(F)(F)F)NC(=O)[C@@H](CCC#N)OC(=O)[C@H](C)N(C)C1=O [C-51] (cyclo(L[NMeA][Butanoyl(2R-oxy,4-CN)][Abu(4,4,4-F3)][NMeL]L[X17]))
– | 2450 | 4540 | 201 | 9060 | 644 | – | 1080 | 30 | CC(C)C[C@@H]1NC(=O)[C@@H](CCC#N)OC(=O)[C@H](C)N(C)C(=O)[C@H](CCC(F)(F)F)NC(=O)[C@H](Cc2csc3ccccc23)N(C)C(=O)[C@H](CC(C)C)NC(=O)[C@H](CC(C)C)N(C)C1=O [C-50] (cyclo(L[NMeBta][Nva(5,5,5-F3)][NMeA][Butanoyl(2R-oxy,4-CN)]L[NMeL]))
– | 1800 | 3370 | 168 | – | 550 | 17 | 623 | 22 | CC(C)C[C@@H]1NC(=O)[C@H](CC(C)C)N(C)C(=O)[C@H](CC(F)(F)F)NC(=O)[C@@H](CCC#N)OC(=O)[C@H](C)N(C)C(=O)[C@H](CCC(F)(F)F)NC(=O)[C@H](Cc2csc3ccccc23)N(C)C1=O [C-49] (cyclo(L[NMeBta][Nva(5,5,5-F3)][NMeA][Butanoyl(2R-oxy,4-CN)][Abu(4,4,4-F3)][NMeL]))
– | 1240 | 1630 | 27 | 1340 | 133 | – | 284 | 36 | CC(C)C[C@@H]1NC(=O)[C@H](CC(C)C)N(C)C(=O)[C@H](CC(F)(F)F)NC(=O)[C@@H](CCC#N)OC(=O)[C@H](C)N(C)C(=O)[C@H](CCC(F)(F)F)NC(=O)[C@H](Cc2cn(Cc3ccc(Br)cc3)c3ccccc23)N(C)C1=O [C-48] (cyclo(L[NMeTrp(1-(4-Br-benzyl))][Nva(5,5,5-F3)][NMeA][Butanoyl(2R-oxy,4-CN)][Abu(4,4,4-F3)][NMeL]))
